27 molecules from patent publication US6548553B2, “Styryl sulfone anticancer agents” (Temple University-of the Commonwealth System of Higher …, priority 1997, dated 2003) can be followed below.

The test system of data set [1] is LnCaP and MCF-7 cells. The experiment in a line: Trypan blue exclusion viability assay, Tables 2-4. It counts as cell-based. Conditions: 5.0 μM compound, 48 hours; for viability at 5 µM: read-out: % viable LnCaP and MCF-7 cells. As to the method: (§1) The effect of the styryl sulfones on the growth of normal and tumor cells of breast and prostate was examine utilizing four cell lines, NIH3T3, MCF-7, BT-20 and LnCap. NIH/3T3 cells represent normal fibroblasts while LnCap is an androgen-dependent prostate tumor cell line. MCF-7 is an estrogen-responsive breast tumor cell line, while BT-20 is an estrogen-unresponsive breast tumor cell line. MCF-7 and BT-20 were grown in Dulbecco's modified Eagle's medium (DMEM) containing 10% fetal bovine serum supplemented with penicillin and streptomycin. LnCaP were cultured in RPMI with 10% fetal bovine serum containing penicillin and streptomycin. NIH3T3 cells were grown in DMEM containing 10% calf serum supplemented with penicillin and streptomycin. All cell cultures were maintained at 37° C. in a humidified atmosphere of 5% CO2.
Cells were treated with test compound at 2.5 μM or 5.0 μM concentration and cell viability was determined after 48 hours by the Trypan blue exclusion method. The compounds identified in Tables 2, 3 and 4 inhibited cell growth and induced cell death, to varying degrees. The tables list the percent viable LnCap and MCF-7 cells treated with 5.0 μM compound.

Data set [2] is described as follows: Trypan blue exclusion viability assay, normal fibroblasts. The data set is classed as cell-based. Further details: viability at 48 h: dose or concentration left out as unconfirmed. Conditions: mouse, NIH3T3 cells (normal fibroblasts); for viability at 48 h: 48 hours incubation, read-out: viable NIH3T3 cells. As to the method: as §1
(§2) The compounds identified in Tables 2, 3 and 4 inhibited cell growth and induced cell death, to varying degrees. The tables list the percent viable LnCap and MCF-7 cells treated with 5.0 μM compound.
(§3) The percentage of living cells was determined by Trypan blue exclusion. The control cells were treated with DMSO to determine the effect of solvent on cells. […] Under these conditions, only 2-3% of NIH3T3 cells were non-viable at both the concentrations. […] After 48 hours incubation, 60-75% of the LnCaP, BT-20 and MCF-7 cells were dead at […] FRI-20 concentration, whereas more than 90% of NIH3T3 cells were viable (FIG. 2A).

The subject of data set [3] is LnCaP, BT-20 and MCF-7 cells. The data set is described as follows: Trypan blue exclusion viability/proliferation assay (dose and time course). It counts as cell-based. Conditions: 2.5 mM (FIG. 1A) and 5.0 mM (FIG. 1B), 48 hours of treatment.
The test system of data set [4] is LnCaP, BT-20 and MCF-7 cells. Described as above. It counts as cell-based. How it is done: as §1, §2
as §3, with “NIH3T3, MCF-7, BT-20 and LnCaP cells were treated with FRI-20 dissolved in DMSO to concentrations of 250 nM, 500 nM, 1 μM, 2.5 μM and 5 μM and examined for their proliferation and viability after 48 hours (FIG. 2A). The percentage” for “The percentage”
NIH/3T3, MCF-7, BT-20 and LnCap were treated with FRI-20 at 2.5 μM and the number of viable cells was determined at 12, 24, 48 and 72 hours by Trypan blue exclusion.

The subject of data set [5] is BT20. The experiment in a line: GI50 growth inhibition, trypan blue cell count. The data set is classed as cell-based, human. Conditions: breast, estrogen receptor negative; 96 hours after addition. As to the method: (§4) The human carcinoma cell lines listed in Table 5 below were purchased from ATCC and grown in an appropriate growth medium containing 10% fetal bovine serum (FBS) and antibiotics. The cells were plated at a cell density of 1.0×10^5 cells per […] in 6-well dishes. The cells were treated with various concentrations of (E)-fluorostyryl-4-bromobenzylsulfone 24 hours after plating in a total volume of 1 ml of medium using dimethylsulfoxide (DMSO) as a solvent for the compound. Control cells were treated with DMSO alone. The total number of viable cells was determined 96 hours after the addition of the compound by counting the cells in each well using a hemacytometer after trypan blue staining (viable cells exclude the stain). The counts were done in duplicate and the average was graphed in FIG. 8 as a percentage of the non-treated control group.

The test system of data set [6] is DLD-1. The data set is described as follows: GI50 growth inhibition, trypan blue cell count. Conditions: cob-rectal; 96 hours after addition. The data set is classed as cell-based, human. As to the method: as §4
The test system of data set [7] is DU145. The data set is described as follows: GI50 growth inhibition, trypan blue cell count. It counts as cell-based, human. Conditions: prostate, androgen receptor negative; 96 hours after addition. How it is done:
as §4

In data set [8] the test system is H157. The data set is described as follows: GI50 growth inhibition, trypan blue cell count. It counts as cell-based, human. Conditions: lung, non-small cell; 96 hours after addition. How it is done: as §4
For data set [9], the system named is MIA-PaCa-2. The data set is described as follows: GI50 growth inhibition, trypan blue cell count. It counts as cell-based, human. Conditions: pancreatic; 96 hours after addition. As to the method: as §4
In data set [10] the test system is U87. The data set is described as follows: GI50 growth inhibition, trypan blue cell count. It counts as cell-based, human. Conditions: glioblastoma; 96 hours after addition. As to the method:
as §4

The subject of data set [11] is DU145 cells. The data set is described as follows: Comparison with cisplatin, Trypan blue viability after 72 hours. The data set is classed as cell-based. Conditions: DU145, 72 hours, Trypan blue exclusion. As to the method: (§5) The killing effect of FR-20 on androgen-sensitive (LnCaP) and androgen insensitive (DU145) prostate tumor cells was compared to the effect of cisplatin (cis-diamminedichloroplatinum II), a widely used anti-prostate cancer agent. The cells were grown as in Example 26. FRI-20 or cisplatin was dissolved in DMSO and added to the cells at various concentrations. Viability was determined after 72 hours by the Trypan blue exclusion method. The concentration of FRI-20 required to completely kill LnCaP and DU145 cells was 2.5 μM and 5.0 μM, respectively. Under identical conditions, complete killing of LnCaP and DU145 cells by cisplatin required 25 μM and 15 μM concentrations, respectively.

Data set [12] relates to LnCaP cells. The data set is described as above. The data set is classed as cell-based. Conditions: LnCaP, 72 hours, Trypan blue exclusion. As to the method:
as §5

Molecules are shown by their SMILES.

Consider `O=S(=O)(/C=C/c1ccccc1)c1ccccc1` [Example 1, E-styryl Phenyl Sulfone], for which, in data set [1], the viability at 5 µM stood at 89%. Still for that read-out and setting: then `O=S(=O)(/C=C/c1ccc(Cl)cc1)c1ccccc1` [Example 2, E-4-chlorostyryl Phenyl Sulfone], with 90%; and `O=S(=O)(/C=C/c1ccc(Cl)cc1Cl)c1ccccc1` [Example 3, E-2,4-dichlorostyryl Phenyl Sulfone], with 88%; and `O=S(=O)(/C=C/c1ccc(Br)cc1)c1ccccc1` [Example 4, E-4-bromostyryl Phenyl Sulfone], with 68%. On the same count and under the same terms, then `O=S(=O)(/C=C/c1ccc(Cl)cc1)c1ccc(Cl)cc1` [Example 5, E-4-chlorostyryl 4-chlorophenyl Sulfone], with 64%.

For `Cc1ccc(/C=C/S(=O)(=O)c2ccc(Cl)cc2)cc1` [Example 6, E-4-methylstyryl 4-chlorophenyl Sulfone], in [1], the viability at 5 µM was found to be 92%. As to `COc1ccc(/C=C/S(=O)(=O)c2ccc(Cl)cc2)cc1` [Example 7, E-4-methoxystyryl 4-chlorophenyl Sulfone], the viability at 5 µM in data set [1] is 90%. The same measure, in the same setting: next, `O=S(=O)(/C=C/c1ccc(Br)cc1)c1ccc(Cl)cc1` [Example 8, E-4-bromostyryl 4-chlorophenyl Sulfone]: 69%; `O=S(=O)(/C=C/c1ccccc1Cl)Cc1ccccc1` [Example 9, E-2-chlorostyryl Benzyl Sulfone]: 94%. The same measure, in the same setting: then `O=S(=O)(/C=C/c1ccc(Cl)cc1)Cc1ccccc1` [Example 10, E-4-chlorostyryl Benzyl Sulfone], with 87%. As to `O=S(=O)(/C=C/c1ccc(Cl)cc1)Cc1ccc(Cl)cc1` [Example 12, E-4-chlorostyryl 4-chlorobenzyl Sulfone], the viability at 5 µM in [1] worked out at 49%. Further, in data set [2], the viability at 48 h, 5 µM is greater than 80% and the viability at 48 h is greater than 80%. Also, the “inhibition of growth and induction of death of LnCaP, BT-20 and MCF-7 cells” value (shortened to “inhibition … BT-20 and MCF-7 cells”) in data set [3] was “substantially inhibit the growth and induce the death”. Regarding `O=S(=O)(/C=C/c1ccc(F)cc1)Cc1ccc(F)cc1` [Example 13, E-4-fluorostyryl 4-fluorobenzyl Sulfone], in data set [1], the viability at 5 µM amounted to 43%. For `O=S(=O)(/C=C/c1ccc(F)cc1F)Cc1ccc(F)cc1` [Example 14, E-2,4-difluorostyryl 4-fluorobenzyl Sulfone], the viability at 5 µM in data set [1] stood at 56%. In data set [2], the viability at 48 h, 5 µM was greater than 80% and the viability at 48 h was greater than 80%. The “inhibition … BT-20 and MCF-7 cells” value in data set [3] is “substantially inhibit the growth and induce the death”. As for `O=S(=O)(/C=C/c1ccc(Br)cc1)Cc1ccc(Br)cc1` [Example 16, E-4-bromostyryl 4-bromobenzyl Sulfone], in [1], the viability at 5 µM turned out to be 51%. For `O=S(=O)(/C=C/c1ccc(Br)cc1)Cc1ccc(F)cc1` [Example 17, E-4-bromostyryl 4-fluorobenzyl Sulfone], the viability at 5 µM in [1] was determined as 42%. For the same molecule, in data set [2], the viability at 48 h, 5 µM is greater than 80% and the viability at 48 h is greater than 80%. Also, the “inhibition … BT-20 and MCF-7 cells” value in data set [3] is “substantially inhibit the growth and induce the death”. In the case of `O=S(=O)(/C=C/c1ccc(Cl)cc1)Cc1ccc(Br)cc1` [Example 18, E-4-chlorostyryl 4-bromobenzyl Sulfone], the viability at 5 µM in [1] is 7%. In addition, the “activity (growth inhibition and cell death)” value in [4] was “highly active”. `O=S(=O)(/C=C/c1ccc(Br)cc1)Cc1ccc(Cl)cc1` [Example 19, E-4-bromostyryl 4-chlorobenzyl Sulfone]: in data set [1], the viability at 5 µM is 20%. Besides, in data set [4], the “activity (growth inhibition and cell death)” value is “highly active”. Turning to `O=S(=O)(/C=C\c1ccccc1)/C=C/c1ccc(F)cc1` [Example 20, (Z)-styryl-(E)-4-fluorostyryl Sulfone], in [1], the viability at 5 µM stood at 76%.

Take `O=S(=O)(/C=C\c1ccccc1)/C=C/c1ccc(Br)cc1` [Example 21, (Z)-styryl-(E)-4-bromostyryl Sulfone]: the viability at 5 µM in [1] is 68%. On the same count and under the same terms, then `O=S(=O)(/C=C\c1ccccc1)/C=C/c1ccc(Cl)cc1` [Example 22, (Z)-styryl-(E)-4-chlorostyryl Sulfone], with 72%. Still for that read-out and setting: next, `O=C(C(=Cc1ccc(F)cc1)S(=O)(=O)c1ccc(F)cc1)c1ccccc1` [Example 23, 2-[(4-fluorophenyl)sulfonyl]-1-phenyl-3-(4-fluorophenyl)-2-propen-1-one]: 76%. Turning to `O=C(C(=Cc1ccc(F)cc1)S(=O)(=O)c1ccccc1Cl)c1ccccc1` [Example 24], the “% viable LnCaP and MCF-7 cells” value in [1] was 64%. As for `O=C(C(=Cc1ccc(Br)cc1)S(=O)(=O)c1ccccc1Cl)c1ccccc1` [Example 25, 2-[(2-chlorophenyl)sulfonyl]-1-phenyl-3-(4-bromophenyl)-2-propen-1-one], in [1], the viability at 5 µM was 72%. The same measure, in the same setting: next, `O=C(C(=Cc1ccc(Br)cc1)S(=O)(=O)c1ccc(Cl)cc1)c1ccccc1` [Example 26, 2-[(4-chlorophenyl)sulfonyl]-1-phenyl-3-(4-bromophenyl)-2-propen-1-one]: 58%; `O=C(C(=Cc1ccc(Br)cc1)S(=O)(=O)c1ccccc1[N+](=O)[O-])c1ccccc1` [Example 27, 2-[(2-nitrophenyl)sulfonyl]-1-phenyl-3-(4-bromophenyl)-2-propen-1-one]: 74%. What is called GI50 is the concentration giving 50% growth inhibition. Regarding `O=S(=O)(/C=C/c1ccc(F)cc1Cl)Cc1ccc(Cl)cc1` [Example 36, E-(2)-chloro-4-fluorostyryl-4-chlorobenzylsulfone], the GI50 was found to be 900 nM in [5]; 800 nM in data set [6]; 2000 nM in data set [7]; 1500 nM in data set [8]; 1000 nM in data set [9]; 1800 nM in data set [10].

`N.N.[Cl][Pt][Cl]` [cisplatin, cis-diamminedichloroplatinum II, reference compound]: the results for the “concentration required to completely kill cells” value in [11] and in [12] were 15 µM and 25 µM, respectively.
